Assay results published in PMC3188330 (2011).

Legend:
UGT1A10 [1] = molecular target: T1, UGT1A10 (Homo sapiens, UniProt Q9HAW8); experiment: glucuronidation rate at […]; type: cell-based
T1 sequence (Q9HAW8 26-530): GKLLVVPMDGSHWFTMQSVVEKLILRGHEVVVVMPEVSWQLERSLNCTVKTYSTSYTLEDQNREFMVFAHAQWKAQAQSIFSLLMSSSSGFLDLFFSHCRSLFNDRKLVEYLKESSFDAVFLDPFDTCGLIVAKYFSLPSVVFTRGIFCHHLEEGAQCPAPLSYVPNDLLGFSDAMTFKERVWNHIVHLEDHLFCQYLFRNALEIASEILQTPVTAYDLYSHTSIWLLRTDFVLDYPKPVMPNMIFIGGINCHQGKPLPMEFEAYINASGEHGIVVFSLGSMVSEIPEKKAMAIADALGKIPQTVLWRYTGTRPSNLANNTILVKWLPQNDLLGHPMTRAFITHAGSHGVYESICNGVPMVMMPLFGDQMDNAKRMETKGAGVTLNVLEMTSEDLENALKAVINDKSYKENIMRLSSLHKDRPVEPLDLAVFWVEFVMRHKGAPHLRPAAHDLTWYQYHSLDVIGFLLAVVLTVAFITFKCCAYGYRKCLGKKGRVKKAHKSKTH

UGT1A10 [2] = molecular target: T1, UGT1A10; experiment: glucuronidation rate at […]; type: cell-based; remark: listed apart in the source

Row | SMILES | glucuronidation rate at 100 μM (HPLC) (UGT1A10 [1]) | glucuronidation rate at 500 μM (HPLC) (UGT1A10 [2])
1 | Oc1cccc2ccccc12 [1-naphthol] | F93L catalyzed 1-naphthol glucuronidation at about twice the rate of the control UGT1A10 | –
2 | COc1cc2ccc(=O)oc2cc1O [scopoletin] | – | majority of the mutants were higher than control, up to six fold the (normalized) rate of UGT1A10
